# Test results published in patent US12605351B2, “Method for producing a composition comprising a 3-O-p-coumaroyl ester of tormentic acid from a plant cell culture, applications thereof as antiparasitic agent for the treatment of trypanosomiasis” (LUXEMBOURG INSTITUTE OF SCIENCE AND TECHNOLOGY, priority 2019, dated 2026).
# Read-outs that look alike come from different tables or passages of the source.
# Experiments:
# [1] = system: Trypanosoma brucei brucei bloodstream forms (strain 427); assay: In vitro antitrypanosomal activity on Tbb BSF; format: cell-based; details: for SI (Selectivity Index): cytotoxicity in WI38 compared to Tbb; for antitrypanosomal activity compared with parent ursolic/oleanolic acid: in words
# Method: Antiparasitic activities were evaluated in vitro on Trypanosoma brucei brucei bloodstream forms (strain 427) (Tbb BSF). Tbb BSF were cultured in vitro at 37° C. with 5% CO2 in HMI9 medium containing 10% heat-inactivated fetal bovine serum, […] ([…]) and L-cysteine ([…]).
# (§1) In vitro tests were performed as previously described by Hoet S. et al. (Planta Med., 2004, 70, 407-413, doi:10.1055/s-2004-818967). Suramine (a commercial anti-trypanosomal drug) and camptothecin were used as positive controls. Stock solutions of compounds to be tested were prepared at a concentration of 10 mg/mL in DMSO. The solutions were further diluted in medium (described in 1.1) to give 0.1 mg/mL stock solutions. Extracts and compounds were tested in eight serial three-fold dilutions (final concentration range: 50-0.02 mg/L) in 96-well microliter plates. All tests were performed at least in duplicate.
# [2] = system: Human normal fibroblast cell line (WI-38); assay: cells; format: cell-based; details: for cytotoxicity compared with parent oleanolic acid: in words
# Method: The cytotoxicity of tested compounds was evaluated in parallel on a Human normal fibroblast cell line (WI-38) cultivated in a humidified atmosphere with 5% CO2 at 37° C. Human normal fibroblast cell line (WI-38) was cultivated in DMEM medium (Life Technologies) containing 4 mM L-glutamine, 1 mM sodium pyruvate supplemented with 10% fetal bovine serum (Sigma) and penicillin-streptomycin (100 UI/mL).
# as §1, with “Suramine” for “In vitro tests were performed as previously described by Hoet S. et al. (Planta Med., 2004, 70, 407-413, doi:10.1055/s-2004-818967). Suramine”
# [3] = In vivo acute toxicity test (highest tolerated dose); parameters: species or system NMRI mice
# Description: (§2) NMRI mice (6-8 weeks of age) obtained from Envigo Laboratories (The Netherlands) were used. All in vivo experiments performed were approved by the Ethical Committee for animals use at the Health Sciences Sector of the Catholic University of Louvain (2017/UCL/MD/017).
# The assessment of the highest tolerated dose was based on a DNDi protocol by Loset J.-R. et al. (V. Drug Screening for Kinetoplastids Diseases. A Training Manual for Screening in Neglected Diseases-DNDi, 2009) and adapted by Beaufay C. et al. (Malar J., 2017, 16, doi:10.1186/s12936-017-2054-y). Briefly, 3-O-cis/trans-p-coumaroyltormentic acid isolated from fractions F-F9 obtained from a callus of Malus domestica Cox cultivar of example 1 above was given intraperitoneally every 2 hours to 2 mice using increasing doses: 10-15-25-50 mg/kg from stock solutions of 10 mg/mL. Mice were controlled for any health problem symptoms or behavioral changes and monitored for weight and hematocrit after each injection and every day during 48 h after administration. Main organs (heart, liver, spleen, lung and kidney) of treated mice were observed and weighed wet during autopsy. Control group received the vehicle, distilled water with 10% of tween 80-ethanol (7:3). The total injected dose was finally recorded and will ensure the non-toxicity of in vivo anti-trypanosomal test.
# [4] = system: Trypanosoma brucei brucei; assay: In vivo anti-trypanosomal activity in infected mice; parameters: species or system NMRI mice
# Description: as §2
# Mice were randomly divided into 6 mice per group for 3-O-cis/trans-p-coumaroyltormentic acid (mixture of cis and trans) and ursolic acid, 4 for positive control (Suramine) and 7 for the negative control, and were infested intraperitoneally with 10^4 Trypanosoma brucei brucei. All compounds were solubilized in the vehicle (water-tween 80-ethanol) and administered intraperitoneally. 3-O-cis/trans-p-coumaroyltormentic acid or ursolic acid (UA) were administered at 50 mg/kg at day 3 after infection with the parasite and then every day until day 7 post-infection. Suramine (0.5 mg/kg) was administered while vehicle was used as a negative control. From day 3 post infection, a drop of blood collected each day from mouse-tail was used to count parasitemia.
# [5] = Trypanosoma brucei, Tbb bloodstream forms strain 427, Table 3, read-out: Tbb (IC50 μM)
# [6] = Trypanosoma brucei, Tbb bloodstream forms strain 427, Table 3, read-out: Tbb (IC50 μg/mL)
# [7] = cytotoxicity, WI-38 human fibroblasts, Table 3, read-out: WI38 (IC50 μM)
# [8] = cytotoxicity, WI-38 human fibroblasts, Table 3, read-out: WI38 (IC50 μg/mL)
# [9] = Table 4, same methods as example 3, read-out: Antitrypanosomal (Tbb) IC50 (μM, Mean ± Sd)
# [10] = Table 4, same methods as example 3, read-out: Cytotoxicity (WI38) IC50 (μM, Mean ± Sd)
# [11] = Tbb bloodstream forms strain 427, Table 3
# [12] = Tbb bloodstream forms strain 427, Table 3, read-out: Tbb (IC50 μM)
# [13] = cytotoxicity, WI-38 human fibroblasts, Table 3
compound,measurement,setting,value
C[C@H]1[C@H](C)CC[C@]2(C(=O)O)CC[C@]3(C)C(=CC[C@@H]4[C@@]5(C)C[C@@H](O)[C@H](O)C(C)(C)[C@@H]5CC[C@]43C)[C@H]12 [Corosolic Acid],IC50,[1]; [5],7.3 ± 0.59 µM
same,IC50,[1]; [6],3.45 ± 0.23 µg/mL
same,SI (Selectivity Index),[1],2.7
same,IC50,[2]; [7],19.8 ± 5.22 µM
same,IC50,[2]; [8],9.34 ± 2.47 µg/mL
"CC1(C)CC[C@]2(C(=O)O)CC[C@]3(C)C(=CC[C@@H]4[C@@]5(C)CC[C@H](OC(=O)CCc6ccccc6F)C(C)(C)C5CC[C@]43C)[C@@H]2C1 (stereo partly drawn) [Derivative (II-10), 3-O-orthofluorophenylpropionic oleanolic acid]",IC50,[1]; [9],4.63 ± 0.28 µM
same,IC50,[2]; [10],18.6 ± 4.47 µM
"CC1(C)CC[C@]2(C(=O)O)CC[C@]3(C)C(=CC[C@@H]4[C@@]5(C)CC[C@H](OC(=O)CCc6ccccc6)C(C)(C)C5CC[C@]43C)[C@@H]2C1 (stereo partly drawn) [Derivative (II-6), 3-O-hydrocinnamic oleanolic acid]",IC50,[1]; [9],2.59 ± 0.87 µM
same,antitrypanosomal activity compared with parent ursolic/oleanolic acid,[1],significantly increased activity
same,IC50,[2]; [10],23.5 ± 6.56 µM
same,cytotoxicity compared with parent oleanolic acid,[2],significantly increased
C[C@H]1[C@H](C)CC[C@]2(C(=O)O)CC[C@]3(C)C(=CC[C@@H]4[C@@]5(C)CC[C@H](O)C(C)(C)[C@@H]5CC[C@]43C)[C@H]12 [Ursolic acid],total cumulative highest tolerated dose,"[3]; NMRI, mouse, in vivo, ip, 48 h",100 mg/kg
same,acute toxicity,"[3]; mice, intraperitoneally every 2 hours, 10-15-25-50 mg/kg, monitored 48 h",no acute toxic symptom
same,IC50,[1]; [5],2.38 ± 0.24 µM
same,IC50,[1]; [6],1.08 ± 0.11 µg/mL
same,SI (Selectivity Index),[1],4.8
same,survival of infected mice in comparison to the untreated group,"[4]; 50 mg/kg/d i.p. day 3-7 post-infection, followed to day 19",no significant difference
same,parasitemia,"[4]; day 4 post-infection, 50 mg/kg/day intraperitoneally, 10^4 Tbb/mouse",did not show any effect
same,survival increase,"[4]; day 12 post-infection, 50 mg/kg i.p. day 3-7",16.7%
same,IC50,[2]; [7],11.1 ± 0.22 µM
same,IC50,[2]; [8],5.08 ± 0.1 µg/mL
"C[C@H]1[C@H](C)CC[C@]2(C(=O)O)CC[C@]3(C)C(=CC[C@@H]4[C@@]5(C)CC[C@H](OC(=O)CCc6cccc(F)c6)C(C)(C)C5CC[C@]43C)[C@H]12 (stereo partly drawn) [Derivative (II-4), 3-O-metafluorophenylpropionic ursolic acid]",IC50,[1]; [9],2.67 ± 0.83 µM
same,IC50,[2],> 165 µM
"C[C@H]1[C@H](C)CC[C@]2(C(=O)O)CC[C@]3(C)C(=CC[C@@H]4[C@@]5(C)CC[C@H](OC(=O)CCc6ccccc6)C(C)(C)C5CC[C@]43C)[C@H]12 (stereo partly drawn) [Derivative (II-1), 3-O-hydrocinnamic ursolic acid]",IC50,[1]; [9],2.22 ± 0.66 µM
same,IC50,[2],142 ± 3.45 µM
"C[C@H]1[C@H](C)CC[C@]2(C(=O)O)CC[C@]3(C)C(=CC[C@@H]4[C@@]5(C)CC[C@H](OC(=O)CCc6ccc(F)cc6)C(C)(C)C5CC[C@]43C)[C@H]12 (stereo partly drawn) [Derivative (II-3), 3-O-parafluorophenylpropionic ursolic acid]",IC50,[1]; [9],2.45 ± 0.3 µM
same,IC50,[2],> 165 µM
Annurcoic acid,Tbb (IC50 μg/mL),[1]; [11],27.39 ± 2.24 µg/mL
same,IC50,[1]; [12],56.3 ± 4.6 µM
same,WI38 (IC50 μg/mL),[2]; [13],70.17 ± 6.82 µg/mL
same,IC50,[2]; [7],144 ± 14 µM
"CC1(C)CC[C@]2(C(=O)O)CC[C@]3(C)C(=CC[C@@H]4[C@@]5(C)CC[C@H](OC(=O)CCc6cccc(F)c6)C(C)(C)C5CC[C@]43C)[C@@H]2C1 (stereo partly drawn) [Derivative (II-9), 3-O-metafluorophenylpropionic oleanolic acid]",IC50,[1]; [9],1.72 ± 0.07 µM
same,antitrypanosomal activity compared with parent ursolic/oleanolic acid,[1],significantly increased activity
same,IC50,[2]; [10],20.7 ± 2.25 µM
same,cytotoxicity compared with parent oleanolic acid,[2],significantly increased
C[C@@H]1CC[C@]2(C(=O)O)CC[C@]3(C)C(=CC[C@@H]4[C@@]5(C)C[C@@H](O)[C@H](O)C(C)(C)[C@@H]5CC[C@]43C)[C@@H]2[C@]1(C)O [Tormentic acid],Tbb (IC50 μg/mL),[1]; [11],7.49 ± 0.33 µg/mL
same,IC50,[1]; [12],15.3 ± 0.67 µM
same,WI38 (IC50 μg/mL),[2]; [13],26.48 ± 0.33 µg/mL
same,IC50,[2]; [7],54.2 ± 0.67 µM
"CC1(C)CC[C@]2(C(=O)O)CC[C@]3(C)C(=CC[C@@H]4[C@@]5(C)CC[C@H](OC(=O)/C=C/c6ccccc6)C(C)(C)C5CC[C@]43C)[C@@H]2C1 (stereo partly drawn) [Derivative (II-7), 3-O-cinnamic oleanolic acid]",IC50,[1]; [9],6.31 ± 0.96 µM
same,IC50,[2]; [10],22.3 ± 1.88 µM
"CC1(C)CC[C@]2(C(=O)O)CC[C@]3(C)C(=CC[C@@H]4[C@@]5(C)CC[C@H](OC(=O)CCc6ccc(F)cc6)C(C)(C)C5CC[C@]43C)[C@@H]2C1 (stereo partly drawn) [Derivative (II-8), 3-O-parafluorophenylpropionic oleanolic acid]",IC50,[1]; [9],2.88 ± 1.11 µM
same,antitrypanosomal activity compared with parent ursolic/oleanolic acid,[1],significantly increased activity
same,IC50,[2]; [10],16.3 ± 3.26 µM
same,cytotoxicity compared with parent oleanolic acid,[2],significantly increased
Cc1ccc(C(=O)Nc2ccc(S(=O)(=O)O)c3cc(S(=O)(=O)O)cc(S(=O)(=O)O)c23)cc1NC(=O)c1cccc(NC(=O)Nc2cccc(C(=O)Nc3cc(C(=O)Nc4ccc(S(=O)(=O)O)c5cc(S(=O)(=O)O)cc(S(=O)(=O)O)c45)ccc3C)c2)c1 [Suramine],IC50,[1]; [5],0.038 ± 0.008 µM
same,IC50,[1]; [6],0.05 ± 0.01 µg/mL
same,survival till the end of the experiment,[4]; end of experiment day 19 post-infection,survive during all the experimental period
CC1(C)CC[C@]2(C(=O)O)CC[C@]3(C)C(=CC[C@@H]4[C@@]5(C)CC[C@H](O)C(C)(C)[C@@H]5CC[C@]43C)[C@@H]2C1 [Oleanolic acid],IC50,[1]; [5],5.83 ± 0.7 µM
same,IC50,[1]; [6],2.66 ± 0.32 µg/mL
same,SI (Selectivity Index),[1],10.9
same,IC50,[2]; [7],63.3 ± 0.74 µM
same,IC50,[2]; [8],28.9 ± 0.34 µg/mL
"C[C@H]1[C@H](C)CC[C@]2(C(=O)O)CC[C@]3(C)C(=CC[C@@H]4[C@@]5(C)CC[C@H](OC(=O)CCc6ccccc6F)C(C)(C)C5CC[C@]43C)[C@H]12 (stereo partly drawn) [Derivative (II-5), 3-O-orthofluorophenylpropionic ursolic acid]",IC50,[1]; [9],1.66 ± 0.38 µM
same,IC50,[2],> 132 µM
CC[C@@]1(O)C(=O)OCc2c1cc1n(c2=O)Cc2cc3ccccc3nc2-1 [Camptothecin],IC50,[2]; [7],0.12 ± 0.03 µM
same,IC50,[2]; [8],0.04 ± 0.01 µg/mL
CC1(C)CC[C@]2(C(=O)O)CC[C@]3(C)C(=CC[C@@H]4[C@@]5(C)C[C@@H](O)[C@H](O)C(C)(C)[C@@H]5CC[C@]43C)[C@@H]2C1 [Maslinic acid],IC50,"[1]; Trypanosoma brucei, read-out: Tbb (IC50 μM)",9.41 ± 1.35 µM
same,IC50,"[1]; Trypanosoma brucei, read-out: Tbb (IC50 μg/mL)",4.45 ± 0.64 µg/mL
same,SI (Selectivity Index),[1],4.6
same,IC50,"[2]; Homo sapiens, WI-38, read-out: WI38 (IC50 μM)",44.1 ± 8.4 µM
same,IC50,"[2]; Homo sapiens, WI-38, read-out: WI38 (IC50 μg/mL)",20.9 ± 3.97 µg/mL
"C[C@H]1[C@H](C)CC[C@]2(C(=O)O)CC[C@]3(C)C(=CC[C@@H]4[C@@]5(C)CC[C@H](OC(=O)/C=C/c6ccccc6)C(C)(C)C5CC[C@]43C)[C@H]12 (stereo partly drawn) [Derivative (II-2), 3-O-cinnamic ursolic acid]",IC50,[1]; [9],68.2 ± 2.15 µM
